The record followed here is patent US8178538B2, “Pyridazinones” (Hoffmann-La Roche Inc., priority 2008, dated 2012).

SMILES strings stand for the structures. pIC50: −log10 of the molar value.

The experiment concerns the target T1, PDE10A2 (Homo sapiens, UniProt Q9Y233).
T1 construct: residues serine 449 to aspartate 789; His6 (H6) with thrombin cleavage site (N, cleaved yes); made in house; host or cells: E. coli BL21(DE3) pLysS
Briefly: PDE10A2 inhibition, Scintillation Proximity Assay (SPA). The experiment is classed as biochemical. The conditions noted are these: catalytic domain of human PDE10A2 (S449-D789), 0.25 nM enzyme, 50 nM cGMP + 50 nM [3H]-cGMP, 30 minutes at room temperature. As to the method:
The following tests were carried out in order to determine the activity of the compounds of the present invention. PDE10 activity of the compounds of the present invention is determined using a Scintillation Proximity Assay (SPA)-based method similar to the one previously described (Fawcett, L. et al., Proc Natl Acad Sci USA (2000) 97(7):3702-3707).
PDE10A1 and PDE10A2 are two splice variants of PDE10A. There are these 2 splice variants known, which differ in the N-terminal part of the protein. The catalytic domains of PDE10A1 and PDE10A2 are identical. The assay for PDE10A2 described below is therefore also representative for PDE10A1 and also for PDE10A in general.
The PDE10A2 assay was performed in a two step procedure in 96-well micro titer plates. The reaction mixture of 80 μl contained 20 mM HEPES/10 mM MgCl2/[…] (pH 7.5), 50 nM cGMP (Sigma) and 50 nM [^3H]-cGMP (GE Healthcare), 0.25 nM PDE10A2 with or without a specific test compound. A range of concentrations of the potential inhibitor was used to generate data for calculating the concentration of inhibitor resulting in 50% of the effect (e.g. IC50, the concentration of the competitor inhibiting PDE10A2 activity 50%). Non-specific activity was tested without the enzyme. The reaction was initiated by addition of the substrate solution (cGMP and [^3H]-cGMP) and allowed to progress for 30 minutes at room temperature. The reaction was terminated by transferring 50 μl of the reaction mixture into an OptiPlate (Perkin Elmer) containing 25 μl of YSi-SPA scintillation beads (GE Healthcare) in 18 mM zinc sulphate solution (stop reagent). After 1 h under shaking, the plate was centrifuged one minute at 1000 rpm to allow beads to settle. Afterwards, radioactive counts were measured on a Perkin Elmer TopCount Scintillation plate reader.
The catalytic domain of human PDE10A2, residues serine 449 to aspartate 789, was amplified by PCR using cDNA (Origene) and the oligonucleotides 5′-GGGGACAAGTTT […]-3′ (SEQ ID NO. 1) (with AttB1 recombination site in bold and thrombin protease cleavage site in italics) and 5′-[…] GCTG-3′ (SEQ ID NO. 2) (with AttB2 recombination site in bold) which conferred Gateway recombination sites. The PCR product was used in a BP recombination reaction with pDONR221 to generate pENTR Thm-PDE10A2(S449-D789) which was DNA sequence verified and then used in an LR recombination reaction with a Gateway modified version of pET11a. The resulting expression vector, placT7.2H6-(gw1)-Thm-PDE10A2(S449-D789) was DNA sequence confirmed and transformed into E. coli strain BL21(DE3) pLysS and recombinant protein was produced in TB medium at 20° C. by induction to a final IPTG concentration of 0.5 mM at an optical density of 1.0 at 600 nm for 20 hours. About 30% of the protein was in the soluble fraction of the cell homogenate. The protein was purified using sequential chromatography on Ni-NTA and HiTrapQ/HiTrapS. After thrombin digest at room temperature a HiTrapChelating/HiTrap Benzamindin chromatography removed impurities, uncleaved protein and thrombin. Final purification of PDE10A2(S449-D789) was performed on a Superdex 75 size exclusion chromatography equilibrated with 25 mM HEPES pH 8.4, 0.15 M NaCl. The yield of pure protein was 2 mg/liter of culture volume is relatively low. The purity of the protein was >95%, monomeric and monodisperse as shown by SDS-PAGE, HPLC and analytical ultracentrifugation.

T1 sequence (Q9Y233 715-1055): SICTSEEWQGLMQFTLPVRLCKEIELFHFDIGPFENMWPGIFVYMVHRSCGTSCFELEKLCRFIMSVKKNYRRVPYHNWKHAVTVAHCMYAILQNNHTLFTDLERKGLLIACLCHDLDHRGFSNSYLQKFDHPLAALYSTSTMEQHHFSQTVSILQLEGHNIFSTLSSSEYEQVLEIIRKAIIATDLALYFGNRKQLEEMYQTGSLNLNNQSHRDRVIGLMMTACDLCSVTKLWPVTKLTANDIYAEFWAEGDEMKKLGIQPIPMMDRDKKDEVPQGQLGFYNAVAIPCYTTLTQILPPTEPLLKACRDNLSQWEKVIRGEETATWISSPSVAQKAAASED

As to `O=c1ccn(-c2ccccc2)nc1-c1ccnn1-c1ccccn1` [Example 13, 1-Phenyl-3-(2-pyridin-2-yl-2H-pyrazol-3-yl)-1H-pyridazin-4-one], the negative logarithm of the IC50 (pIC50) (in general, the IC50 on a negative log10 scale, so that one unit is a factor of ten) is 5.85. The result for `O=c1ccn(-c2ccc(OC(F)F)cc2)nc1-c1ccnn1-c1ccnc2ccc(F)cc12` [Example 149, 1-(4-Difluoromethoxy-phenyl)-3-[2-(6-fluoro-quinolin-4-yl)-2H-pyrazol-3-yl]-1H-pyridazin-4-one] reads 7.85; that for `CCc1cccc(-n2ccc(=O)c(-c3ccnn3-c3ccccc3)n2)c1` [Example 17, 1-(3-Ethyl-phenyl)-3-(2-phenyl-2H-pyrazol-3-yl)-1H-pyridazin-4-one], 7.60. The same measure for `O=c1ccn(-c2cccc(OC(F)(F)F)c2)nc1-c1ccnn1-c1ccc2c(c1)OC(F)(F)O2` [Example 162, 3-[2-(2,2-Difluoro-benzo[1,3]dioxol-5-yl)-2H-pyrazol-3-yl]-1-(3-trifluoromethoxy-phenyl)-1H-pyridazin-4-one]: 6.81; for `N#Cc1cccc(-n2ccc(=O)c(-c3ccnn3-c3ccnc4ccccc34)n2)c1` [Example 207, 3-[4-Oxo-3-(2-quinolin-4-yl-2H-pyrazol-3-yl)-4H-pyridazin-1-yl]-benzonitrile]: 8.30. Turning to `O=c1ccn(-c2ccc(OC(F)(F)F)cc2)nc1-c1ccnn1-c1ccncc1` [Example 35, 3-(2-Pyridin-4-2H-pyrazol-3-yl)-1-(4-trifluoromethoxy-phenyl)-1H-pyridazin-4-one], the negative-log IC50 (pIC50) was 6.84. On to `N#Cc1cccc(-n2nccc2-c2nn(-c3cccc4c3OC(F)(F)O4)ccc2=O)c1` [Example 129, 3-{5-[1-(2,2-Difluoro-benzo[1,3]dioxol-4-yl)-4-oxo-1,4-dihydro-pyridazin-3-yl]-pyrazol-1-yl}-benzonitrile], for which the negative-log IC50 (pIC50) is 7.10. `N#Cc1cccc(-n2nccc2-c2nn(-c3cccc4c3OCO4)ccc2=O)c1` [Example 114, 3-[5-(1-Benzo[1,3]dioxol-4-yl-4-oxo-1,4-dihydro-pyridazin-3-yl)-pyrazol-1-yl]-benzonitrile]: the negative logarithm of the IC50 (pIC50) was 7.09. The result for `CS(=O)(=O)c1cccc(-n2ccc(=O)c(-c3ccnn3-c3cccc4ccccc34)n2)c1` [Example 85, 1-(3-Methanesulfonyl-phenyl)-3-(2-naphthalen-1-yl-2H-pyrazol-3-yl)-1H-pyridazin-4-one] reads 8.70.

As for `Cc1cc(-n2nccc2-c2nn(-c3cccc(OC(F)(F)F)c3)ccc2=O)ccn1` [Example 124, 3-[2-(2-Methyl-pyridin-4-yl)-2H-pyrazol-3-yl]-1-(3-trifluoromethoxy-phenyl)-1H-pyridazin-4-one], the pIC50 is 7.24. For `O=c1ccn(-c2cccc(S(=O)(=O)N3CCCCC3)c2)nc1-c1ccnn1-c1ccnc2ccc(Cl)cc12` [Example 267, 3-[2-(6-Chloro-quinolin-4-yl)-2H-pyrazol-3-yl]-1-[3-(piperidine-1-sulfonyl)-phenyl]-1H-pyridazin-4-one], the pIC50 is 7.40. The same measure for `COc1ccc(-c2csc(-n3nccc3-c3nn(-c4cccc(S(C)(=O)=O)c4)ccc3=O)n2)c(F)c1` [Example 95, 3-{2-[4-(2-Fluoro-4-methoxy-phenyl)-thiazol-2-yl]-2H-pyrazol-3-yl}-1-(3-methanesulfonyl-phenyl)-1H-pyridazin-4-one]: 5.92. On to `N#Cc1cccc(-n2nccc2-c2nn(-c3ccc(OC(F)(F)F)cc3)ccc2=O)c1` [Example 36, 3-{5-[4-Oxo-1-(4-trifluoromethoxy-phenyl)-1,4-dihydro-pyridazin-3-yl]-pyrazol-1-yl}-benzonitrile], for which the negative-log IC50 (pIC50) was 7.54. The result for `CS(=O)(=O)c1cccc(-n2ccc(=O)c(-c3ccnn3-c3cccc(F)c3)n2)c1` [Example 86, 3-[2-(3-Fluoro-phenyl)-2H-pyrazol-3-yl]-1-(3-methanesulfonyl-phenyl)-1H-pyridazin-4-one] reads 7.17; that for `CS(=O)(=O)c1cccc(-n2ccc(=O)c(-c3ccnn3-c3cccc(OC(F)(F)F)c3)n2)c1` [Example 122, 1-(3-Methanesulfonyl-phenyl)-3-[2-(3-trifluoromethoxy-phenyl)-2H-pyrazol-3-yl]-1H-pyridazin-4-one], 7.55. For the molecule `O=c1ccn(-c2ccc(OCC(F)(F)F)cc2)nc1-c1ccnn1-c1cccc(Cl)c1` [Example 257, 3-[2-(3-Chloro-phenyl)-2H-pyrazol-3-yl]-1-[4-(2,2,2-trifluoro-ethoxy)-phenyl]-1H-pyridazin-4-one], the pIC50 is 8.52. Regarding `O=c1ccn(-c2ccc3c(c2)OC(F)(F)O3)nc1-c1ccnn1-c1ccccc1F` [Example 174, 1-(2,2-Difluoro-benzo[1,3]dioxol-5-yl)-3-[2-(2-fluoro-phenyl)-2H-pyrazol-3-yl]-1H-pyridazin-4-one], the pIC50 was 6.74. On to `CCOc1cc(-n2nccc2-c2nn(-c3ccc(OC(F)(F)F)cc3)ccc2=O)ccn1` [Example 200, 3-[2-(2-Ethoxy-pyridin-4-yl)-2H-pyrazol-3-yl]-1-(4-trifluoromethoxy-phenyl)-1H-pyridazin-4-one], for which the pIC50 was 7.34. Turning to `CS(=O)(=O)c1ccc(-n2ccc(=O)c(-c3ccnn3-c3cccc4cnccc34)n2)cc1` [Example 192, 3-(2-Isoquinolin-5-yl-2H-pyrazol-3-yl)-1-(4-methanesulfonyl-phenyl)-1H-pyridazin-4-one], the negative logarithm of the IC50 (pIC50) was 7.89. Take `O=c1ccn(-c2cccc(OC(F)(F)F)c2)nc1-c1ccnn1-c1nccc2c1CCCC2` [Example 58, 3-[2-(5,6,7,8-Tetrahydro-isoquinolin-1-yl)-2H-pyrazol-3-yl]-1-(3-trifluoromethoxy-phenyl)-1H-pyridazin-4-one]: the pIC50 is 7.17.

On to `O=c1ccn(-c2cccc(F)c2)nc1-c1ccnn1-c1ccc2c(c1)OCO2` [Example 109, 3-(2-Benzo[1,3]dioxol-5-yl-2H-pyrazol-3-yl)-1-(3-fluoro-phenyl)-1H-pyridazin-4-one], for which the negative-log IC50 (pIC50) was 7.14. Consider `O=C1CCC(c2ccc(-n3nccc3-c3nn(-c4cccc(OC(F)(F)F)c4)ccc3=O)cc2)=NN1` [Example 78, 3-{2-[4-(6-Oxo-1,4,5,6-tetrahydro-pyridazin-3-yl)-phenyl]-2H-pyrazol-3-yl}-1-(3-trifluoromethoxy-phenyl)-1H-pyridazin-4-one], for which the negative logarithm of the IC50 (pIC50) is 5.94. `O=c1ccn(-c2cccc(O)c2)nc1-c1ccnn1-c1ccc2c(c1)OCCO2` [Example 277, 3-[2-(2,3-Dihydro-benzo[1,4]dioxin-6-yl)-2H-pyrazol-3-yl]-1-(3-hydroxy-phenyl)-1H-pyridazin-4-one]: the pIC50 is 8.40. Take `CS(=O)(=O)c1cccc(-n2ccc(=O)c(-c3ccnn3-c3cccc4c3OCO4)n2)c1` [Example 106, 3-(2-Benzo[1,3]dioxol-4-yl-2H-pyrazol-3-yl)-1-(3-methanesulfonyl-phenyl)-1H-pyridazin-4-one]: the negative logarithm of the IC50 (pIC50) was 7.40. As for `O=c1ccn(-c2ccc(OC(F)(F)F)cc2)nc1-c1ccnn1-c1ccc(F)cc1` [Example 138, 3-[2-(4-Fluoro-phenyl)-2H-pyrazol-3-yl]-1-(4-trifluoromethoxy-phenyl)-1H-pyridazin-4-one], the negative logarithm of the IC50 (pIC50) is 7.43.

For `CC(O)c1cccc(-n2ccc(=O)c(-c3ccnn3-c3ccccc3F)n2)c1` (centres unmarked) [Example 298, 3-[2-(2-Fluoro-phenyl)-2H-pyrazol-3-yl]-1-[3-(1-hydroxy-ethyl)-phenyl]-1H-pyridazin-4-one], the pIC50 was 7.59.
